We go through eight molecules from patent publication US10005817B2, “Peptide pharmaceuticals” (EUMEDERIS PHARMACEUTICALS, INC., priority 2012, dated 2018).

In assay [1] the target is T1, PTH receptor (PTHR1) (Homo sapiens, UniProt Q03431).
T1 construct: Cerep SA
T1 sequence (Q03431 27-593): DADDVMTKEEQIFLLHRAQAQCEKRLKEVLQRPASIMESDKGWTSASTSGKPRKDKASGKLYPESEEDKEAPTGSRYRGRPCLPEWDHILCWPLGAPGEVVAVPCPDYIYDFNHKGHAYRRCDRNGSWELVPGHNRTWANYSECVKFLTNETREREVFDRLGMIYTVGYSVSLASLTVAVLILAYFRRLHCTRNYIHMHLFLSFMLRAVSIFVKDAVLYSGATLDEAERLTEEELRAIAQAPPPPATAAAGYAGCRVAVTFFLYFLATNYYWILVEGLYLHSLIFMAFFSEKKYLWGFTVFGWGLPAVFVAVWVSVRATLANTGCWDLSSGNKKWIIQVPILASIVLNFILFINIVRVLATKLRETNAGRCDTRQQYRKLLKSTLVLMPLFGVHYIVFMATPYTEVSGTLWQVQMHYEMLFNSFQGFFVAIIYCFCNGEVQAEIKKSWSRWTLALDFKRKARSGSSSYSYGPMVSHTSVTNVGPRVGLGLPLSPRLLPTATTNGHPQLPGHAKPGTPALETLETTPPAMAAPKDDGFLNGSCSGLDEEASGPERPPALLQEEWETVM
Nature of the assay: PTH1 cellular assay, cAMP, agonist mode (SaOS2 cells, Cerep). Particulars: for Emax: SAOS-2, read-out: Maximal response (% PTHrP). It counts as cell-based. Here is the method:
Compounds were weighed precisely in an amount of approximately 1 mg and assayed in standard cellular assays (cerep SA). The readout is the amount of cAMP generated in the cells treated with the test compounds, in either agonist or antagonist mode.
Compounds were dissolved in water and diluted in assay buffer containing 1% bovine serum albumin.

Assay [2] addresses T2, mu opioid receptor (Homo sapiens, UniProt P35372).
T2 construct: Cerep
Nature of the assay: mu opioid receptor cellular assay (MOP), agonist mode, cAMP readout (Cerep). Format: cell-based. The protocol:
Compounds were weighed precisely in an amount of approximately 2 mg and assayed in standard cellular assays by the contract research organization Cerep, Inc. (Pullman, Wash.) as executed at their subsidiary, Cerep SA (Le Bois l'Eveque, France). The readout is the amount of cAMP generated in the cells treated with the test compounds, in either agonist or antagonist mode. The assays used were the mu opioid receptor cellular assay (MOP in agonist and antagonist mode), the delta2 opioid receptor cellular assay (DOP in agonist and antagonist mode) and the kappa opioid receptor cellular assay (KOP in agonist and antagonist mode). The assays used are described in Wang, J. B., et al. (1994) FEBS Lett 338: 217-222, Law, P. Y. and Loh, H. H. (1993) Mol Pharmacol 43: 684-693, and Avidor-Reiss, T., et al. (1995) FEBS Lett 361: 70-74. The stimulant for the cells in the DOR antagonist assay was 3×10E-8M DPDPE, a well-accepted DOR literature standard.

The subject of assay [3] is db/db mice. The assay is described as follows: db/db mice, blood glucose after s.c. dosing. Format: in vivo, mouse. Particulars: db/db mice, s.c., 250 nmole/kg. The protocol:
The 60 female db/db B6BKS (D) Leprdb/J (strain 000697) mice for this study were approximately 8 to 9 weeks old at arrival (Jackson Laboratory, Bar Harbor, Me.). […] One group of 8 female mice served as the vehicle control and received the vehicle, 0.2% BSA in saline, pH 7.4. One additional group of 8 female mice received the positive control article, liraglutide, at a dose level of 50 nmoles/kg. The test articles, vehicle, and positive control article were administered on Day 1, at approximately 0, 7, and 24 hours during the study via subcutaneous injection at a dose volume of 6 mL/kg.
Clinical observations were conducted at receipt, prior to randomization, and daily from Days 1 to 5. Body weights were measured and recorded at receipt, prior to randomization, and daily from Days 1 to 5. Food consumption was measured and recorded daily from Days 1 to 5. Blood samples for glucose analysis were collected pretest (Day −3) and at 0, 1, 2, 4, 8, 10, 24, 48, 72, and 96 hours following the first dose on Day 1. At study termination all animals were euthanized and the carcasses were discarded without further evaluation.

Molecules are shown by their SMILES. Positions of bridges follow the written chain, without caps; N, C: chain ends. Non-standard residues stand in square brackets, D forms with d. Residues, ends and D or L forms follow the SMILES beside them. *: point of attachment. GlcA(β-D,1-O-dodecyl) = CCCCCCCCCCCCO[C@@H]1O[C@H](C(=O)*)[C@@H](O)[C@H](O)[C@H]1O; βGlcA(1-OMe) = CO[C@@H]1O[C@H](C(=O)*)[C@@H](O)[C@H](O)[C@H]1O; Phe(2,4,6-Me3) = Cc1cc(C)c(C[C@H](N)C(=O)O)c(C)c1; Dmt = Cc1cc(O)cc(C)c1C[C@H](N)C(=O)O; hArg = N=C(N)NCCCC[C@H](N)C(=O)O; Nle = CCCC[C@H](N)C(=O)O; Ac5c = NC1(C(=O)O)CCCC1; Aib = CC(C)(N)C(=O)O

T2 sequence (P35372 whole entry): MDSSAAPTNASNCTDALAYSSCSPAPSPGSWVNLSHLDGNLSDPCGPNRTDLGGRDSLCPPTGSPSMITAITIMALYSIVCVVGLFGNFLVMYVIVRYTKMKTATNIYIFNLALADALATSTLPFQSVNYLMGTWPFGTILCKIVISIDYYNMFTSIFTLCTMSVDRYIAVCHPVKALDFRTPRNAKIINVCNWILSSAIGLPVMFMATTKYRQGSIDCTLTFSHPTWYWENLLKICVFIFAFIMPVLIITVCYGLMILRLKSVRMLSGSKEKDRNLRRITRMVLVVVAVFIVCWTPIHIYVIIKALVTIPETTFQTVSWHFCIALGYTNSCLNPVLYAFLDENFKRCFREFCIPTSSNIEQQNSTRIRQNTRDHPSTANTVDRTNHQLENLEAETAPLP

The term EC50 denotes the concentration at which the effect is half-maximal. The low end stands for a more potent agent, the high end for a less potent agent. Consider `CCCCCCCCCCCCO[C@@H]1O[C@H](C(=O)NCCCC[C@H](NC(=O)[C@H](CCC(N)=O)NC(=O)[C@@H](NC(=O)[C@H](Cc2c[nH]c3ccccc23)NC(=O)[C@H](CCCNC(=N)N)NC(=O)[C@H](C)NC(=O)[C@H](CCCCNC(=N)N)NC(=O)[C@H](CCC(N)=O)NC(=O)[C@H](Cc2c[nH]cn2)NC(=O)[C@H](CCCC)NC(=O)[C@H](CC(C)C)NC(=O)[C@H](CCC(N)=O)NC(=O)[C@@H](NC(=O)[C@H](CCC(=O)O)NC(=O)C(C)(C)NC(=O)[C@@H](NC(=O)C2(N)CCCC2)C(C)C)[C@@H](C)CC)[C@@H](C)CC)C(N)=O)[C@@H](O)[C@H](O)[C@H]1O` [EU-204] (H-[Ac5c]V[Aib]EIQL[Nle]HQ[hArg]ARWIQK(GlcA(β-D,1-O-dodecyl))-NH2), for which, in assay [1], the Characterization result is on record as “agonist”, the concentration for a half-maximal effect (EC50) was 20 nM and the Emax came out at 135%.

Turning to `CCCCCCCCCCCCO[C@@H]1O[C@H](C(=O)NCCCC[C@H](NC(=O)C(C)(C)NC(=O)[C@H](CCC(N)=O)NC(=O)[C@@H](NC(=O)[C@H](Cc2c[nH]c3ccccc23)NC(=O)[C@H](CCCNC(=N)N)NC(=O)[C@H](C)NC(=O)[C@H](CCCCNC(=N)N)NC(=O)[C@H](CCC(N)=O)NC(=O)[C@H](Cc2c[nH]cn2)NC(=O)[C@H](CCCC)NC(=O)[C@H](CC(C)C)NC(=O)[C@H](CCC(N)=O)NC(=O)[C@@H](NC(=O)[C@H](CCC(=O)O)NC(=O)C(C)(C)NC(=O)[C@@H](NC(=O)C2(N)CCCC2)C(C)C)[C@@H](C)CC)[C@@H](C)CC)C(N)=O)[C@@H](O)[C@H](O)[C@H]1O` [EU-207] (H-[Ac5c]V[Aib]EIQL[Nle]HQ[hArg]ARWIQ[Aib]K(GlcA(β-D,1-O-dodecyl))-NH2; N-terminus assumed), in assay [1], the Characterization result was “agonist” and the Emax worked out at 110%.

`CCCCCCCCCCCCO[C@@H]1O[C@H](C(=O)NCCCC[C@H](NC(=O)[C@H](CC(C)C)NC(=O)[C@H](Cc2ccccc2)NC(=O)[C@@H]2CCC(=O)NCCCC[C@H](NC(=O)[C@H](CC(=O)O)NC(=O)[C@H](CCC(N)=O)NC(=O)[C@@H](NC(=O)[C@H](Cc3c[nH]c4ccccc34)NC(=O)[C@H](CCCNC(=N)N)NC(=O)[C@H](C)NC(=O)[C@H](CCCCNC(=N)N)NC(=O)[C@H](CCC(N)=O)NC(=O)[C@H](Cc3c[nH]cn3)NC(=O)[C@H](CCCC)NC(=O)[C@H](CC(C)C)NC(=O)[C@H](CCC(N)=O)NC(=O)[C@@H](NC(=O)[C@H](CCC(=O)O)NC(=O)C(C)(C)NC(=O)[C@@H](NC(=O)C3(N)CCCC3)C(C)C)[C@@H](C)CC)[C@@H](C)CC)C(=O)N[C@@H](CCCNC(=N)N)C(=O)N[C@@H](CCCNC(=N)N)C(=O)N[C@@H](CCCNC(=N)N)C(=O)N2)C(=O)NC(C)(C)C(N)=O)[C@@H](O)[C@H](O)[C@H]1O` [EU-284] (H-[Ac5c]V[Aib]EIQL[Nle]HQ[hArg]ARWIQDKRRREFLK(GlcA(β-D,1-O-dodecyl))[Aib]-NH2; lactam 18-22; N-terminus assumed): in assay [1], the Characterization entry was “agonist” and the Emax came to 110%.

Turning to `CO[C@@H]1O[C@H](C(=O)NCCCC[C@H](NC(=O)[C@H](Cc2c(C)cc(C)cc2C)NC(=O)[C@@H]2CCCN2C(=O)[C@@H](N)Cc2c(C)cc(O)cc2C)C(N)=O)[C@@H](O)[C@H](O)[C@H]1O` [EU-A101, Dmt-Pro-Tmp-Lys(C1-glucuronyl)-NH2] (H-[Dmt]P[Phe(2,4,6-Me3)]K(βGlcA(1-OMe))-NH2), in assay [2], the “Characterization (MOP)” value is “pure agonist” and it took 13 nM to reach a half-maximal effect (EC50).

On to `CO[C@@H]1O[C@H](C(=O)NCCCC[C@@H](NC(=O)[C@@H](N)Cc2c(C)cc(O)cc2C)C(=O)N[C@@H](Cc2c(C)cc(C)cc2C)C(=O)N[C@@H](Cc2ccccc2)C(N)=O)[C@@H](O)[C@H](O)[C@H]1O` [EU-A107, Dmt-D-Lys(C1-glucuronyl)-Tmp-Phe-NH2] (H-[Dmt][dK](βGlcA(1-OMe))[Phe(2,4,6-Me3)]F-NH2; N-terminus assumed), for which, in assay [2], the “Characterization (MOP)” value is given as “Agonist” and the EC50 is 60 nM.

Turning to `CCCCCCCCO[C@@H]1O[C@H](C(=O)NCCCC[C@H](NC(=O)[C@@H](NC(=O)[C@H](Cc2ccccc2)NC(=O)[C@H](CCC(=O)O)NC(=O)[C@@H]2CCCCNC(=O)CC[C@H](NC(=O)[C@H](CC(=O)O)NC(=O)[C@H](CC(C)C)NC(=O)[C@H](Cc3ccc(O)cc3)NC(=O)[C@H](CCCCN)NC(=O)[C@H](CO)NC(=O)[C@H](Cc3ccc(O)cc3)NC(=O)[C@H](CC(=O)O)NC(=O)[C@H](CO)NC(=O)[C@@H](NC(=O)[C@H](Cc3ccccc3)NC(=O)[C@@H](NC(=O)CNC(=O)[C@H](CCC(N)=O)NC(=O)C(C)(C)NC(=O)[C@@H](N)Cc3c[nH]cn3)[C@@H](C)O)[C@@H](C)O)C(=O)N[C@@H](CCC(N)=O)C(=O)N[C@@H](C)C(=O)N[C@@H](C)C(=O)N2)[C@@H](C)CC)C(=O)N[C@@H](Cc2c[nH]c3ccccc23)C(=O)N[C@@H](CC(C)C)C(=O)N[C@@H](CC(C)C)C(=O)N[C@@H](CCC(N)=O)C(=O)N[C@H](C(N)=O)[C@@H](C)O)[C@@H](O)[C@H](O)[C@H]1O` [EU-A992], the “Mean Blood Glucose” value was 405 mg/dL in assay [3] (0 hr), 104 mg/dL in assay [3] (10 hr), 112 mg/dL in assay [3] (24 hr) and 130 mg/dL in assay [3] (48 hr).

Take `CCCCCCCCCCO[C@@H]1O[C@H](C(=O)NCCCC[C@H](NC(=O)[C@@H](NC(=O)[C@H](Cc2ccccc2)NC(=O)[C@H](CCC(=O)O)NC(=O)[C@@H]2CCCCNC(=O)CC[C@H](NC(=O)[C@H](CC(=O)O)NC(=O)[C@H](CC(C)C)NC(=O)[C@H](Cc3ccc(O)cc3)NC(=O)[C@H](CCCCN)NC(=O)[C@H](CO)NC(=O)[C@H](Cc3ccc(O)cc3)NC(=O)[C@H](CC(=O)O)NC(=O)[C@H](CO)NC(=O)[C@@H](NC(=O)[C@H](Cc3ccccc3)NC(=O)[C@@H](NC(=O)CNC(=O)[C@H](CCC(N)=O)NC(=O)C(C)(C)NC(=O)[C@@H](N)Cc3c[nH]cn3)[C@@H](C)O)[C@@H](C)O)C(=O)N[C@@H](CCC(N)=O)C(=O)N[C@@H](C)C(=O)N[C@@H](C)C(=O)N2)[C@@H](C)CC)C(=O)N[C@@H](Cc2c[nH]c3ccccc23)C(=O)N[C@@H](CC(C)C)C(=O)N[C@@H](CC(C)C)C(=O)N[C@@H](CCC(N)=O)C(=O)N[C@H](C(N)=O)[C@@H](C)O)[C@@H](O)[C@H](O)[C@H]1O` [EU-A1167]: the “Mean Blood Glucose” value stood at 379 mg/dL in assay [3] (0 hr), 171 mg/dL in assay [3] (10 hr), 117 mg/dL in assay [3] (24 hr) and 113 mg/dL in assay [3] (48 hr).

Regarding `CCCCCCCCCCCO[C@@H]1O[C@H](C(=O)NCCCC[C@H](NC(=O)[C@@H](NC(=O)[C@H](Cc2ccccc2)NC(=O)[C@H](CCC(=O)O)NC(=O)[C@@H]2CCCCNC(=O)CC[C@H](NC(=O)[C@H](CC(=O)O)NC(=O)[C@H](CC(C)C)NC(=O)[C@H](Cc3ccc(O)cc3)NC(=O)[C@H](CCCCN)NC(=O)[C@H](CO)NC(=O)[C@H](Cc3ccc(O)cc3)NC(=O)[C@H](CC(=O)O)NC(=O)[C@H](CO)NC(=O)[C@@H](NC(=O)[C@H](Cc3ccccc3)NC(=O)[C@@H](NC(=O)CNC(=O)[C@H](CCC(N)=O)NC(=O)C(C)(C)NC(=O)[C@@H](N)Cc3c[nH]cn3)[C@@H](C)O)[C@@H](C)O)C(=O)N[C@@H](CCC(N)=O)C(=O)N[C@@H](C)C(=O)N[C@@H](C)C(=O)N2)[C@@H](C)CC)C(=O)N[C@@H](Cc2c[nH]c3ccccc23)C(=O)N[C@@H](CC(C)C)C(=O)N[C@@H](CC(C)C)C(=O)N[C@@H](CCC(N)=O)C(=O)N[C@H](C(N)=O)[C@@H](C)O)[C@@H](O)[C@H](O)[C@H]1O` [EU-A1168], the “Mean Blood Glucose” value in assay [3] (0 hr) was 380 mg/dL; in assay [3] (10 hr), 133 mg/dL; in assay [3] (24 hr), 169 mg/dL; in assay [3] (48 hr), 164 mg/dL.
